Reference: US6630321B1, “Method for identifying a compound that modulates the function of the gene product of an essential gene” (priority 1999, dated 2003)
Numbered stars: 1 amine (or outer) side, 2 acyl side, 3 side chain; on linkers, the order of the positions; unused ones are H or OH. Square brackets hold non-standard residues; d marks the D form. Peptide text beside a SMILES is read from it. X1 = CC[C@@H](C)[C@@H](O[*:1])C(=O)[*:2]; NMeVal(β-OH) = CN[C@H](C(=O)O)C(C)(C)O; NMeF = CN[C@@H](Cc1ccccc1)C(=O)O; aIle = CC[C@@H](C)[C@H](N)C(=O)O; NMeV = CN[C@H](C(=O)O)C(C)C

Key:
GAL1-AUR1 strain = experiment: growth (optical density) hypersensitivity of GAL1-AUR1 strain after promoter switch-off, compared to wild type; format: cell-based, S. cerevisiae; conditions: GAL1 promoter switched OFF (galactose to glucose), final optical density vs wt
Description: (§1) By “viable” we mean cells that have grown sufficiently so that when gene expression of an essential gene is turned off, meaningful measurements and kinetic analysis may be made. The cells are preferably allowed to grow into early stationary phase by which time a final optical density reading is taken. A reduced optical density compared to no drug or no switchoff controls is interpreted as growth inhibition.
However no reduction in growth will be observed as long as the amount of active Erg11p is high enough not to be rate limiting for growth (above the threshold, see FIG. 2) In our example the fluconazole concentration is insufficient to reduce Erg11p activity below this threshold. The situation for a GAL1-driven ERG11 gene is different however: At time 0 the gene's engineered promoter is switched from the ON state (because of the high expression of a GAL1 promoter this level is usually higher than for the native promoter) to the OFF state by changing the carbon source in the culture. From this timepoint on no new mRNA is transcribed and—after decay of the mRNA—no new Erg11 protein is being synthesized. Erg11 concentrations are now falling due to the dilution of the enzyme into new daughter cells and protein decay of Erg11p. […] This is reflected by a lower final optical density of the culture. […] Therefore the threshold-line is crossed earlier, as no new Erg11p can be synthesized. […]

GAL1-ERG11 strain = experiment: growth (optical density) hypersensitivity of GAL1-ERG11 strain after promoter switch-off, compared to wild type; format: cell-based, S. cerevisiae; conditions: GAL1 promoter switched OFF (galactose to glucose), final optical density vs wt
Description: as §1
However no reduction in growth will be observed as long as the amount of active Erg11p is high enough not to be rate limiting for growth (above the threshold, see FIG. 2) In our example the fluconazole concentration is insufficient to reduce Erg11p activity below this threshold. The situation for a GAL1-driven ERG11 gene is different however: At time 0 the gene's engineered promoter is switched from the ON state (because of the high expression of a GAL1 promoter this level is usually higher than for the native promoter) to the OFF state by changing the carbon source in the culture. From this timepoint on no new mRNA is transcribed and—after decay of the mRNA—no new Erg11 protein is being synthesized. Erg11 concentrations are now falling due to the dilution of the enzyme into new daughter cells and protein decay of Erg11p. […] This is reflected by a lower final optical density of the culture. […] Therefore the threshold-line is crossed earlier, as no new Erg11p can be synthesized. Compared to the wild-type cell, this is seen as hypersensitivity (larger reduction in growth in the presence of an identical concentration of drug). Simplified one can explain this as a reduced amount of cell-doublings before rate-limiting conditions occur.
For target and compound evaluation the hypersensitivity has to be specific for certain drug-target combinations. Therfore the method was tested and validated with another unrelated known drug-target combination: The AUR1 gene encodes inositolphosphorylceramide (IPC) synthase, an essential enzyme of the fungal sphingolipid biosynthetic pathway (Nagiec et al, J.Biol.Chem., 1997, 272,15, 9809-9817). […]

[1] = target: T1, inositolphosphorylceramide (IPC) synthase (AUR1) (Saccharomyces cerevisiae, UniProt P36107); conditions: cited from earlier work
T1 sequence (P36107 1-401): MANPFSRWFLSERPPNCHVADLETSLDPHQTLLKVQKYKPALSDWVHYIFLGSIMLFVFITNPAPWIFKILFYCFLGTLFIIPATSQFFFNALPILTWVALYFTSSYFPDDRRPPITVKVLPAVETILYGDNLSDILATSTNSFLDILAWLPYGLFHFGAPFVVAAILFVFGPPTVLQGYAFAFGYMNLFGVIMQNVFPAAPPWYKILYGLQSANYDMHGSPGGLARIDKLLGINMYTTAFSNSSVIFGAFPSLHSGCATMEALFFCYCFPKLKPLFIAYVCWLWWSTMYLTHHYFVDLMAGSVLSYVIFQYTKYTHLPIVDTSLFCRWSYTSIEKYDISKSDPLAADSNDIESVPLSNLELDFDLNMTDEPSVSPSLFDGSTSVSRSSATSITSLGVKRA
T1 sequence (Q06346 1-221 partner): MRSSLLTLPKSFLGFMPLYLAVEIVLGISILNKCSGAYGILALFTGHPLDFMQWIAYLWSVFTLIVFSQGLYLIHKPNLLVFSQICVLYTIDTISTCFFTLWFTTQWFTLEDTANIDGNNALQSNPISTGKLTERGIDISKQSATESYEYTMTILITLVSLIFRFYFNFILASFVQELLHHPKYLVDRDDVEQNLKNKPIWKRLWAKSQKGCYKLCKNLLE

[2] = target: Erg11p, lanosterol C-14-demethylase (Saccharomyces cerevisiae, UniProt P10614); conditions: cited from earlier work
GAL1-ERG1 strain = experiment: growth (optical density) hypersensitivity of GAL1-ERG1 strain after promoter switch-off, compared to wild type; format: cell-based, S. cerevisiae; conditions: GAL1 promoter switched OFF, FIG. 5
Description: as §1
It follows that the hypersensitive reaction towards an inhibitor of one enzyme in a pathway may be extended to inhibitors of the whole pathway. This is due to the linear arrangement of enzymes in a biochemical cascade of reactions where one enzyme provides substrate for the next. A reduced substrate supply can act synergistically with a reduced enzyme level. Thus the activity of the almost rate-limiting enzyme Erg11p (after switchoff) will be reduced further by withdrawal of its substrate normally provided by Erg1p, squalene epoxidase, another enzyme of the sterol biosynthetic pathway, through several biochemical steps. Erg1p is now inhibited by terbinafine. Any such pathway specific hypersensitivity allows the categorisation of (uncategorised) genes into the same pathway as the switched off gene. To investigate this, we examined Erg1p. […] This pathway-specific analysis tool will be extremely useful for the classification of novel inhibitors (with unknown mode of action).

[3] = target: Erg1p, squalene epoxidase (Saccharomyces cerevisiae, UniProt P32476); conditions: cited from earlier work
Chain of Erg1p, squalene epoxidase (P32476 whole entry): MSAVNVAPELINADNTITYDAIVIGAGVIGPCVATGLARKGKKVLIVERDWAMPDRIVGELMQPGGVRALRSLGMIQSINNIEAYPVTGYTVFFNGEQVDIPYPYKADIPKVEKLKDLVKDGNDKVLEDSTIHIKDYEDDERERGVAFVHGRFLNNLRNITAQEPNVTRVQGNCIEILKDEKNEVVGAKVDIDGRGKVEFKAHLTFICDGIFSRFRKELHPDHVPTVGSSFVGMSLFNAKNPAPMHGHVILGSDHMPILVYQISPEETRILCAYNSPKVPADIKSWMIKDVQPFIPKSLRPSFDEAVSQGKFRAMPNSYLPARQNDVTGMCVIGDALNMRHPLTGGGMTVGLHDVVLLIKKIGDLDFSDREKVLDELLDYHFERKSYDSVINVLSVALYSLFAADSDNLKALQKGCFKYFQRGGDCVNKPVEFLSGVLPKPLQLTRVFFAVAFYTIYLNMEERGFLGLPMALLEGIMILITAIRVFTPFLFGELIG

Chain of Erg11p, lanosterol C-14-demethylase (P10614 whole entry): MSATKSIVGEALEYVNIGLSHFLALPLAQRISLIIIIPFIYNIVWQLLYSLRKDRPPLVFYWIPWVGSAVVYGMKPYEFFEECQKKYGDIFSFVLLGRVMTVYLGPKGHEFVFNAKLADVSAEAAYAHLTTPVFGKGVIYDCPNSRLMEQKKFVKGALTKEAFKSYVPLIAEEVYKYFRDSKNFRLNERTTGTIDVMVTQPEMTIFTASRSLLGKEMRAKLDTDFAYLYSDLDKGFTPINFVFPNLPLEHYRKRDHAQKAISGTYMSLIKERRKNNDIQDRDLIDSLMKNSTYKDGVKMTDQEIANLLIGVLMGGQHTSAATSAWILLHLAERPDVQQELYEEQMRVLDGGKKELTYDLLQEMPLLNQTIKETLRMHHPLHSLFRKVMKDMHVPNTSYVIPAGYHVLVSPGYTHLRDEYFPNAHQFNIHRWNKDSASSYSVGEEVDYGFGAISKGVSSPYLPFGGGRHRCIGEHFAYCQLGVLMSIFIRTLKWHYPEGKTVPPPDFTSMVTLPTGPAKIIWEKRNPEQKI

Compound	hypersensitivity (larger reduction in growth than wild type at identical drug concentration) (GAL1-AUR1 strain)	hypersensitivity (larger reduction in growth than wild type at identical drug concentration) (GAL1-ERG11 strain)	potency of enzyme inhibition [1]	enzyme inhibition [2]	hypersensitivity (larger reduction in growth than wild type at identical drug concentration) (GAL1-ERG1 strain)	enzyme inhibition [3]
CC[C@@H](C)[C@@H]1NC(=O)[C@@H]2CCCN2C(=O)[C@H](Cc2ccccc2)N(C)C(=O)[C@H](Cc2ccccc2)NC(=O)[C@H](C(C)C)N(C)C(=O)[C@@H]([C@H](C)CC)OC(=O)[C@H](C(C)(C)O)N(C)C(=O)[C@H](CC(C)C)NC(=O)[C@H](C(C)C)N(C)C1=O [aureobasidinA] (cyclo(F[NMeF]P[aIle][NMeV]L[NMeVal(β-OH)][X1][NMeV]))	prominent hypersensitive response	no increased sensitivity	sub nanomolar potency			
OC(Cn1cncn1)(Cn1cncn1)c1ccc(F)cc1F [fluconazole]	neither did GAL1-AUR1 show hypersensitivity	prominent hypersensitive response		inhibits Erg11p		
CN(C/C=C/C#CC(C)(C)C)Cc1cccc2ccccc12 [terbinafine]		as hypersuscepible to terbinafine as GAL1-ERG1		Erg11p is not	hypersuscepible	inhibited
